Source: patent publication US5034391A, “Piperazinylalkyl-3(2H)-pyridazinones and the use thereof as agents lowering blood pressure” (CL Pharma Aktiengesellschaft, priority 1988, dated 1991)

target: T1, alpha1 adrenoceptors (Rattus norvegicus, UniProt P15823); experiment: Affinity for alpha1 adrenoceptors: displacement of tritiated prazosin on rat cardiac membranes; assay type: binding; conditions: Ki from IC50 by Cheng and Prusoff, read-out: Inhibition constants at alpha-1-adrenoceptor (Ki)
T1 construct: from tissue; host or cells: rat cardiac membranes
T1 sequence (P15823 1-515): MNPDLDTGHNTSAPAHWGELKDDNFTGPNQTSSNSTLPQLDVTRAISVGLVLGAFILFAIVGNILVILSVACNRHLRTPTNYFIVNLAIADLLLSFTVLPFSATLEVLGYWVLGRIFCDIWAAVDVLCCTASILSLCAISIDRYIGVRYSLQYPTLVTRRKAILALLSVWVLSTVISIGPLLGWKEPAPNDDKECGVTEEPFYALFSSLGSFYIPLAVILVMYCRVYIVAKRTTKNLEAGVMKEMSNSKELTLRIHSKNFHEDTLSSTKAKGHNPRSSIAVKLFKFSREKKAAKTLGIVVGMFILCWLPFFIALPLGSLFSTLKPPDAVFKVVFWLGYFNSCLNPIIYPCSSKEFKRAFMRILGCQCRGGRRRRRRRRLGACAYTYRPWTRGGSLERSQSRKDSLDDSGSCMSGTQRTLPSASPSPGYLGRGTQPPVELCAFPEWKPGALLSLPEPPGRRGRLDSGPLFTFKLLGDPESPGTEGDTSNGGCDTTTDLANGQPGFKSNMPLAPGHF
Method: The affinity of compounds of the general formula I for alpha1 adrenoceptors was established using the method described by R. S. Williams, D. F. Dukes and […] in J. Cardiovasc. Pharmacol. 3, 522-531 (1981). In this method the competitive displacement of tritiated prazosin (2-(4-(2-furoyl)-1-piperazinyl)-4-amino-6,7-dimethoxy-quinazoline) on rat-cardiac membranes by the test substances is measured, and the IC50 (50% inhibition concentration) is determined as that concentration which brings about a 50% inhibition of the specific binding of tritiated prazosin to the alpha1 adrenoceptors in rat cardiac membranes.
The concentration-independent inhibitor constants K1 -alpha1 were determined from the IC50 values as stated by Y. Cheng and H. W.Prusoff in Biochem. Pharmacol. 22, 3099-3108 (1973).

Question: Which Ki does the source give for `COc1ccccc1N1CCN(CCNc2cc(Cl)n[nH]c2=O)CC1` [6-Chloro-4-((2-(4-(2-methoxyphenyl)piperazinyl-1)ethyl)amino)-3(2H)-pyridazinone] here?
Answer: 12.8 nM

Question: How did the Ki turn out when `Cn1nccc(NCCN2CCN(c3ccccc3F)CC2)c1=O` [2-Methyl-4-((2-(4-(2-fluorophenyl)piperazinyl-1)ethyl)amino) -3(2H)-pyridazinone] was run?
Answer: 21.4 nM

Question: With `Cc1ccc(N2CCN(CCCNc3c(Cl)cnn(C)c3=O)CC2)c(O)c1` [2-Methyl-5-chloro-4-((3-(4-(2-hydroxy-4-methylphenyl)piperazinyl-1)propyl)amino)-3(2H)-pyridazinone] as the compound, how does the Ki read?
Answer: 5.34 nM

Question: Which Ki does the source give for `COc1ccccc1N1CCN(CCCCNc2c(Cl)cnn(C)c2=O)CC1` [2-methyl-5-chloro-4-((4-(4-(2-methoxyphenyl)-1-piperazinyl)butyl)amino)-3(2H)-pyridazinone] here?
Answer: 2.15 nM

Question: With `Cn1ncc(Cl)c(NCCCN2CCN(c3ccccc3F)CC2)c1=O` [2-Methyl-5-chloro-4-((3-(4-(2-fluorophenyl)piperazinyl-1)propyl)amino)-3(2H)-pyridazinone] as the compound, how does the Ki read?
Answer: 4.89 nM

Question: How did the Ki turn out when `COc1ccccc1N1CCN(CCNc2ccnn(C(C)(C)C)c2=O)CC1` [2-t-Butyl-4-((2-(4-(2-methoxyphenyl)piperazinyl-1)ethyl)amino)-3(2H)-pyridazinone] was run?
Answer: 60.8 nM

Question: With `Cc1ccc(N2CCN(CCCNc3cnn(C)c(=O)c3Cl)CC2)c(O)c1` [2-Methyl-4-chloro-5-((3-(4-(2-hydroxy-4-methylphenyl)piperazinyl-1)propyl)amino)-3(2H)-pyridazinone] as the compound, how does the Ki read?
Answer: 4.33 nM

Question: Which Ki does the source give for `COc1ccccc1N1CCN(CCNc2ccnn(CCN(C)C)c2=O)CC1` [2-(2-Dimethylaminoethyl)-4-((2-(4-(2-methoxyphenyl)piperazinyl-1)ethyl)amino)-3(2H)-pyridazinone] here?
Answer: 437 nM

Question: `COc1ccccc1N1CCN(CCCN(C)c2c(Cl)cnn(C)c2=O)CC1` [2-Methyl-5-chloro-4-(methyl-(3-(4-(2-methoxyphenyl)piperazinyl-1)propyl)amino)-3(2H)-pyridazinone] was tested. Which Ki did it give?
Answer: 12.9 nM

Question: For `COc1ccccc1N1CCN(CCNc2c(Cl)cnn(CCN(C)C)c2=O)CC1` [2-(2-Dimethylaminoethyl)-5-chloro-4-((2-(4-(2-methoxyphenyl)piperazinyl-1)ethyl)amino)-3(2H)-pyridazinone], which Ki is on record?
Answer: 15.8 nM

Question: For `COc1ccccc1N1CCN(CCCNc2cc(Cl)n[nH]c2=O)CC1` [6-Chloro-4-((3-(4-(2-methoxyphenyl)piperazinyl-1)propyl)amino)-3(2H)-pyridazinone], which Ki is on record?
Answer: 11 nM

Question: `COc1ccccc1N1CCN(CCCCNc2cnn(C)c(=O)c2Cl)CC1` [2-Methyl-4-chloro-5-((4-(4-(2-methoxyphenyl)-1-piperazinyl)butyl)amino)-3(2H)-pyridazinone] was tested. Which Ki did it give?
Answer: 6.05 nM

Question: With `CCOc1ccccc1N1CCN(CCNc2ccnn(C)c2=O)CC1` [2-Methyl-4-((2-(4-(2-ethoxyphenyl)piperazinyl-1)ethyl)amino)-3(2H)-pyridazinone] as the compound, how does the Ki read?
Answer: 13.6 nM

Question: “2-Methyl-4-((2-(4-(2-fluorophenyl)piperazinyl-1)ethyl) amino)-3(2H)-pyridazinone” was tested. Which Ki did it give?
Answer: 89.4 nM

Question: Which Ki does the source give for `Cn1ncc(Cl)c(NCCN2CCN(c3ccccc3OCc3ccccc3)CC2)c1=O` [2-Methyl-5-chloro-4-((2-(4-(2-benzyloxyphenyl)piperazinyl-1)ethyl)amino)-3(2H)-pyridazinone] here?
Answer: 2.54 nM

Question: `COc1ccccc1N1CCN(CCNc2c(Cl)cn[nH]c2=O)CC1` [5-Chloro-4-((2-(4-methoxyphenyl)piperazinyl-1)ethyl)amino)-3(2H)-pyridazinone] was tested. Which Ki did it give?
Answer: 2.95 nM

Question: How did the Ki turn out when `Cn1ncc(NCCCN2CCN(c3ccccc3F)CC2)c(Cl)c1=O` [2-Methyl-4-chloro-5-((3-(4-(2-fluorophenyl)piperazinyl-1)propyl)amino)-3(2H)-pyridazinone] was run?
Answer: 32.8 nM

Question: Which Ki does the source give for `CCOc1cc(C)ccc1N1CCN(CCCNc2cnn(C)c(=O)c2)CC1` [1-Methyl-5-((3-(4-(2-ethoxy-4-methylphenyl)piperazinyl-1)propyl)amino)-3(2H)-pyridazinone] here?
Answer: 23.3 nM

Question: Which Ki does the source give for `COc1ccccc1N1CCN(CCCN(C)c2cnn(C)c(=O)c2Cl)CC1` [2-Methyl-4-chloro-5-(methyl-(3-(4-(2-methoxyphenyl)piperazinyl-1)propyl)amino)-3(2H)-pyridazinone] here?
Answer: 3.55 nM

Question: `Cc1ccccc1N1CCN(CCCNc2cnn(C)c(=O)c2)CC1` [2-Methyl-4-((3-(4-(2-methylphenyl)piperazinyl-1)propyl)amino)-3(2H)-pyridazinone] was tested. Which Ki did it give?
Answer: 49.3 nM

Question: Which Ki does the source give for `CCn1nc(Cl)cc(NCCCN2CCN(c3ccccc3OC)CC2)c1=O` [6-Chloro-2-ethyl-4-((3-(4-(2-methoxyphenyl)-1-piperazinyl)propyl)amino)-3(2H)-pyridazinone] here?
Answer: 18 nM

Question: With `Cc1ccccc1N1CCN(CCNc2c(Cl)cnn(C)c2=O)CC1` [2-Methyl-5-chloro-4-((2-(4-(2-methylphenyl)piperazinyl-1)ethyl)amino)-3(2H)-pyridazinone] as the compound, how does the Ki read?
Answer: 1.21 nM

Question: `Cn1ncc(NCCN2CCN(c3ccccc3O)CC2)c(Cl)c1=O` [2-Methyl-4-chloro-5-((2-(4-(2-hydroxyphenyl)piperazinyl-1)ethyl)amino)-3(2H)-pyridazinone] was tested. Which Ki did it give?
Answer: 15.4 nM

Question: How did the Ki turn out when `COc1cc(C)ccc1N1CCN(CCCNc2cc(Cl)n[nH]c2=O)CC1` [6-Chloro-4-((3-(4-(2-methoxy-4-methylphenyl)piperazinyl-1)propyl)amino)-3(2H)-pyridazinone] was run?
Answer: 7.49 nM

Question: For `CCOc1ccccc1N1CCN(CCCNc2ccn[nH]c2=O)CC1` [4-((3-(4-(2-Ethoxyphenyl)piperazinyl-1)propyl)amino)-3(2H)pyridazinone], which Ki is on record?
Answer: 13 nM

Question: With `COc1ccccc1N1CCN(CCCNc2cc(Cl)nn(CCO)c2=O)CC1` [6-Chloro-2-hydroxyethyl-4-((3-(4-(2-methoxyphenyl)piperazinyl-1)propyl)amino)-3(2H)-pyridazinone] as the compound, how does the Ki read?
Answer: 9.6 nM

Question: With `Cc1ccccc1N1CCN(CCCNc2cnn(C)c(=O)c2Cl)CC1` [2-Methyl-4-chloro-5-((3-(4-(2-methylphenyl)piperazinyl-1)propyl)amino)-3(2H)-pyridazinone] as the compound, how does the Ki read?
Answer: 31.4 nM

Question: How did the Ki turn out when `COc1ccccc1N1CCN(CCCCNc2ccn[nH]c2=O)CC1` [4-((4-(4-(2-Methoxyphenyl)piperazinyl-1)butyl)amino) -3(2H)-pyridazinone] was run?
Answer: 4.64 nM

Question: With `Cc1ccccc1N1CCN(CCCNc2c(Cl)cnn(C)c2=O)CC1` [2-Methyl-5-chloro-4-((3-(4-(2-methylphenyl)piperazinyl-1)piperazinyl-1)propyl)amino)-3(2H)-pyridazinone] as the compound, how does the Ki read?
Answer: 4.45 nM

Question: How did the Ki turn out when `COc1ccccc1N1CCN(CCCNc2ccn[nH]c2=O)CC1` [4-((3-(4-(2-Methoxyphenyl)piperazinyl-1)propyl)amino) -3(2H)-pyridazinone] was run?
Answer: 26.1 nM

Question: How did the Ki turn out when `Cn1ncc(NCCN2CCN(c3ccccc3O)CC2)cc1=O` [2-Methyl-5-((2-(4-(2-hydroxyphenyl)piperazinyl-1)ethyl)amino)-3(2H)-pyridazinone] was run?
Answer: 65.8 nM

Question: Which Ki does the source give for `Cc1ccc(N2CCN(CCNc3cnn(C)c(=O)c3Cl)CC2)c(O)c1` [2-Methyl-4-chloro-5-((4-(2-hydroxy-4-methylphenyl)piperazinyl-1)ethyl)amino)-3(2H)-pyridazinone] here?
Answer: 20.8 nM

Question: `CCOc1cc(C)ccc1N1CCN(CCCNc2ccnn(C)c2=O)CC1` [2-Methyl-4-((3-(4-(2-ethoxy-4-methylphenyl)piperazinyl-1)propyl)amino)-3(2H)-pyridazinone] was tested. Which Ki did it give?
Answer: 13.6 nM

Question: How did the Ki turn out when `CCOc1ccccc1N1CCN(CCNc2cnn(C)c(=O)c2)CC1` [2-Methyl-5-((2-(4-(2-ethoxyphenyl)piperazinyl-1)ethyl)amino)-3(2H)-pyridazinone] was run?
Answer: 103 nM

Question: `Cc1ccc(N2CCN(CCCNc3ccnn(C)c3=O)CC2)c(O)c1` [2-Methyl-4-((3-(4-(2-hydroxy-4-methylphenyl)piperazinyl-1)propyl)amino)-3(2H)-pyridazinone] was tested. Which Ki did it give?
Answer: 20.9 nM

Question: How did the Ki turn out when `Cc1ccccc1N1CCN(CCNc2cnn(C)c(=O)c2Cl)CC1` [2-Methyl-4-chloro-5-((2-(4-(2-methylphenyl)piperazinyl-1)ethyl)amino)-3(2H)-pyridazinone] was run?
Answer: 6.27 nM

Question: `CCOc1cc(C)ccc1N1CCN(CCCNc2cnn(C)c(=O)c2Cl)CC1` [2-Methyl-4-chloro-5-((3-(4-(2-ethoxy-4-methylphenyl)piperazinyl-1)propyl)yamino)-3(2H)-pyridazinone] was tested. Which Ki did it give?
Answer: 3.78 nM

Question: With `COc1ccccc1N1CCN(CCNc2cnn(-c3ccccc3)c(=O)c2)CC1` [2-Phenyl-5-((2-(4-(2-methoxyphenyl)piperazinyl-1)ethyl)amino)-3(2H)-pyridazinone] as the compound, how does the Ki read?
Answer: 61.6 nM

Question: For `CC(C)Oc1ccccc1N1CCN(CCNc2cc(Cl)n[nH]c2=O)CC1` [6-Chloro-4-((2-(4-(2-iso-propoxyphenyl)piperazinyl-1)ethyl)amino)-3(2H)-pyridazinone], which Ki is on record?
Answer: 10 nM

Question: With `COc1ccccc1N1CCN(CCCCNc2cc(Cl)n[nH]c2=O)CC1` [6-Chloro-4-((4-(4-(2-methoxyphenyl)-1-piperazinyl)butyl)amino)-3(2H)-pyridazinone] as the compound, how does the Ki read?
Answer: 3.34 nM
